Test results reported in patent US10544130B2, “Metallo-beta-lactamase inhibitors” (priority 2015, dated 2020).

Each compound was assayed on Pseudomonas aeruginosa PAO1 MB9798 (efflux+, IMP-1). Conditions: ratio MITC95 PA 9798/MITC95 PA 9799; imipenem at 2 μg/mL.
In short: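 Isogenic PAO1 pair (efflux+ MB9798, efflux− MB9799, both IMP-1) tested by microbroth MIC with fixed imipenem and/or ceftazidime, usually at CLSI breakpoint, plus fixed class A/C inhibitor against AmpC. MBL inhibitor titrated; concentration restoring susceptibility recorded and fold difference between strains taken as efflux extent.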

| Structure (SMILES) | Efflux ratio |
| --- | --- |
| C[C@H](N)CC(=O)NS(=O)(=O)c1ccc(-c2cccc3[nH]c(N)nc23)c(-c2nn[nH]n2)c1S(N)(=O)=O [Example 208, (S)-3-amino-N-((4-(2-amino-1H-benzo[d]imidazol-4-yl)-2-sulfamoyl-3-(2H-tetrazol-5-yl)phenyl)sulfonyl)butanamide] | 1.00 |
| NCCNS(=O)(=O)c1ccc(-c2cccc3[nH]c(N)nc23)c(-c2nn[nH]n2)c1S(N)(=O)=O [Example 12, 4-(2-amino-1H-benzo[d]imidazol-4-yl)-N^1-(2-aminoethyl)-3-(2H-tetrazol-5-yl)benzene-1,2-disulfonamide] | 0.75 |
| CN1CCN(S(=O)(=O)c2ccc(-c3cccc4sc(N)nc34)c(-c3nnn[nH]3)c2S(N)(=O)=O)CC1 [Example 27, 3-(2-amino-1,3-benzothiazol-4-yl)-6-[(4-methylpiperazin-1-yl)sulfonyl]-2-(1H-tetrazol-5-yl)benzenesulfonamide] | 2.00 |
| Nc1nc2c(-c3ccc(S(=O)(=O)N4CCNCC4)c(S(N)(=O)=O)c3-c3nn[nH]n3)cccc2o1 [Example 159, 3-(2-aminobenzo[d]oxazol-4-yl)-6-(piperazin-1-ylsulfonyl)-2-(2H-tetrazol-5-yl)benzenesulfonamide] | 2.00 |
| NCC(CN)NS(=O)(=O)c1ccc(-c2cccc(-c3nc[nH]n3)c2)c(-c2nn[nH]n2)c1S(N)(=O)=O [Example 227, N4-(1,3-diaminopropan-2-yl)-2-(2H-tetrazol-5-yl)-3′-(1H-1,2,4-triazol-3-yl)-[1,1′-biphenyl]-3,4-disulfonamide] | 1.00 |
| NC[C@@H](O)CNS(=O)(=O)c1ccc(-c2cccc3[nH]c(N)nc23)c(-c2nn[nH]n2)c1S(N)(=O)=O [Example 298, (R)-4-(2-amino-1H-benzo[d]imidazol-4-yl)-N1-(3-amino-2-hydroxypropyl)-3-(2H-tetrazol-5-yl)-benzene-1,2-disulfonamide] | 0.69 |
| Nc1nc2c(-c3ccc(S(=O)(=O)NC4CC5CNC4C5)c(S(N)(=O)=O)c3-c3nnn[nH]3)cccc2s1 (stereo not drawn) [Example 88, 4-(2-aminobenzo[d]thiazol-4-yl)-N^1-(2-azabicyclo[2.2.1]heptan-6-yl)-3-(1H-tetrazol-5-yl)benzene-1,2-disulfonamide] | 0.50 |
| Nc1nc2c(-c3ccc(S(=O)(=O)N[C@@H]4CCCNC4)c(S(N)(=O)=O)c3-c3nnn[nH]3)cccc2s1 [Example 69, 4-(2-amino-1,3-benzothiazol-4-yl)-N1-[(3R)-piperidin-3-yl]-3-(1H-tetrazol-5-yl)benzene-1,2-disulfonamide] | 0.50 |
| N[C@@H](CO)CNS(=O)(=O)c1ccc(-c2cccc(C3N=CN=N3)c2)c(-c2nn[nH]n2)c1S(N)(=O)=O (stereo partly drawn) [Example 226, N4-((R)-2-amino-3-hydroxypropyl)-2-(2H-tetrazol-5-yl)-3′-(3H-1,2,4-triazol-3-yl)-[1,1′-biphenyl]-3,4-disulfonamide] | 2.00 |
| Nc1nc2c(-c3ccc(S(=O)(=O)N[C@H]4CNC[C@H]4N)c(S(N)(=O)=O)c3-c3nn[nH]n3)cccc2[nH]1 [Example 241, 4-(2-amino-1H-benzo[d]imidazol-4-yl)-N^1-((3S,4R)-4-aminopyrrolidin-3-yl)-3-(2H-tetrazol-5-yl)benzene-1,2-disulfonamide] | 0.83 |
| NC1CCC(c2ccc(S(N)(=O)=O)c(S(N)(=O)=O)c2-c2nnn[nH]2)CC1 (stereo not drawn) [Example 165, 4-(4-aminocyclohexyl)-3-(1H-tetrazol-5-yl)benzene-1,2-disulfonamide] | 4.00 |
| Nc1nc2c(-c3ccc(S(=O)(=O)NCC4COCCN4)c(S(N)(=O)=O)c3-c3nn[nH]n3)cccc2[nH]1 (stereo not drawn) [Example 206, 4-(2-amino-1H-benzo[d]imidazol-4-yl)-N1-(morpholin-3-ylmethyl)-3-(2H-tetrazol-5-yl)benzene-1,2-disulfonamide] | 2.00 |
